In patent publication US20240254119A1 (THIRD HARMONIC BIO, INC., priority 2022, published 2024) one finds IC50 data, which are given here for 38 compounds.

The target of the assay is T1, wtKIT (Homo sapiens, UniProt P10721).
T1 construct: 1888289AM in the reaction mixtures
The assay is described as follows: HTRF biochemical assay, wtKIT (phosphorylation of a peptide substrate). Particulars: Table 4. In short, it runs like this:
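HTRF read-out of FAM-peptide (1 µM) phosphorylation after anti-phosphotyrosine antibody addition and EDTA quench. Reaction: 5.0 nM wtKIT, 400 µM ATP, 10 mM Mn2+, HEPES pH 7.5, 1% DMSO, 3 h, 25 °C; optional enzyme-compound preincubation; enzyme level set for 10-20% conversion.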

T1 sequence (P10721 26-976): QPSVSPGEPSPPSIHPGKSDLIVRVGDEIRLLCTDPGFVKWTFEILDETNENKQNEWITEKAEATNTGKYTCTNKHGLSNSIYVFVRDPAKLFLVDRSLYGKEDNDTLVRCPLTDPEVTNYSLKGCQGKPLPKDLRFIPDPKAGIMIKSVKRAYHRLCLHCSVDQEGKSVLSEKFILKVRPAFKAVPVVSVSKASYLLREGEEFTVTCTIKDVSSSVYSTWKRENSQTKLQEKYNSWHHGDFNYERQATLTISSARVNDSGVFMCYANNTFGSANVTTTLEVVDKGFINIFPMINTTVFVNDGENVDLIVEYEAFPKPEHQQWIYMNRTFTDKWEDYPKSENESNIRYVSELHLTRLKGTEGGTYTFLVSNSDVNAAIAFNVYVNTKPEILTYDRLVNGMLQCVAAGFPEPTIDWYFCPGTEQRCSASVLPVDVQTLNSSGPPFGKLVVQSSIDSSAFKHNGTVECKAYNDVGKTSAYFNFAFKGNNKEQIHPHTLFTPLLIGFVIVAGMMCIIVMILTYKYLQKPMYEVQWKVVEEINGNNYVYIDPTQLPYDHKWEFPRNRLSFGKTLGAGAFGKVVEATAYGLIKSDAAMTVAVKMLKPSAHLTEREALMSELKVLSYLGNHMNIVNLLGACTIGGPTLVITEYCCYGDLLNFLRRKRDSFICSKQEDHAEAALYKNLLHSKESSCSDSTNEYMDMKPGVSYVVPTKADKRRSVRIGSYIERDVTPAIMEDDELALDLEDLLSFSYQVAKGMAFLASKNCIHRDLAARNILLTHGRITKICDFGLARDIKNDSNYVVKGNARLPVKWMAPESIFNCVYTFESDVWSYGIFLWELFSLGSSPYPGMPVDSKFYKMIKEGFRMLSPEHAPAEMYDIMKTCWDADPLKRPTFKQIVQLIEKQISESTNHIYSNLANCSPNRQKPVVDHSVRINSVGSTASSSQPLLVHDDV

Broadly, the IC50 is the concentration at which inhibition is half-maximal. Turning to `Cc1ccc(-c2noc(C3CC(O)C3)n2)cc1NC(=O)c1cnc2cc(-c3ccn(C)n3)ccn12` (centres unmarked) [Compound I-727], the IC50 is no more than 0.05 µM.
For the compound `Cc1ccnc(-c2nc(-c3ccc(C)c(NC(=O)c4cnc5cc(C)ccn45)c3)no2)c1` [Compound I-549, 7-methyl-N-(2-methyl-5-(5-(4-methylpyridin-2-yl)-1,2,4-oxadiazol-3-yl)phenyl)imidazo[1,2-a]pyridine-3-carboxamide], the half-inhibitory concentration (IC50) was no more than 0.05 µM.
The same measure for `Cc1ccc(-c2noc([C@H]3C[C@@H]3F)n2)cc1NC(=O)c1cnc2cc(-c3cscn3)ccn12` [Compound I-547, N-(5-(5-((1R,2S)-2-fluorocyclopropyl)-1,2,4-oxadiazol-3-yl)-2-methylphenyl)-7-(thiazol-4-yl)imidazo[1,2-a]pyridine-3-carboxamide]: no more than 0.05 µM; for `Cc1ccc(-c2noc([C@H]3C[C@@H]3F)n2)cc1NC(=O)c1cnc2cc(CC(C)(C)O)ccn12` [Compound I-460]: 0.05 to 0.5 µM.
As to `Cc1ccc(-c2noc(CC(O)c3ccccc3)n2)cc1NC(=O)c1cnc2ccccn12` (centres unmarked) [Compound I-517, N-(5-(5-(2-hydroxy-2-phenylethyl)-1,2,4-oxadiazol-3-yl)-2-methylphenyl)imidazo[1,2-a]pyridine-3-carboxamide], the IC50 is no more than 0.05 µM.
As for `Cc1ccc(-c2noc([C@H]3C[C@@H]3F)n2)cc1NC(=O)c1cnc2cc([C@H]3C[C@@H]3CO)ccn12` [Compound I-480, N-[5-[5-[(1R,2S)-2-fluorocyclopropyl]-1,2,4-oxadiazol-3-yl]-2-methyl-phenyl]-7-[(1S,2S)-2 (hydroxymethyl)cyclopropyl]imidazo[1,2-a]pyridine-3-carboxamide], the concentration for half-maximal inhibition (IC50) is no more than 0.05 µM.
The same measure for `Cc1ccc(-c2ncon2)cc1NC(=O)c1cnc2cc(-c3ccn(C)n3)ccn12` [Compound I-684]: no more than 0.05 µM; for `Cc1ccc(-c2ncon2)cc1NC(=O)c1cnc2cc(-c3csc(CO)n3)ccn12` [Compound I-685]: no more than 0.05 µM; for `Cc1ccc(-c2noc([C@H]3C[C@@H]3F)n2)cc1NC(=O)c1cnc2c(F)c(COCC(C)(C)O)ccn12` [Compound I-473]: 0.05 to 0.5 µM.
Then `Cc1ccc(-c2noc([C@H]3C[C@@H]3F)n2)cc1NC(=O)c1cnn2cc(F)ccc12` [Compound I-486, 6-fluoro-N-(5-(5-((1R,2S)-2-fluorocyclopropyl)-1,2,4-oxadiazol-3-yl)-2-methylphenyl)pyrazolo[1,5-a]pyridine-3-carboxamide], with no more than 0.05 µM; and `COCc1ccn2c(C(=O)Nc3cc(-c4noc(-c5cccnc5)n4)ccc3C)cnc2c1` [Compound I-732], with 0.05 to 0.5 µM.
In the case of `Cc1ccc(-c2noc(CC(O)C(F)F)n2)cc1NC(=O)c1cnc2cc(COCCO)ccn12` (single isomer, unassigned) [Compound I-511], the IC50 lay in the range of 0.05 to 0.5 µM.
For `COc1ccn2c(C(=O)Nc3cc(-c4noc(-c5ccccc5)n4)ccc3C)cnc2c1` [Compound I-743], the half-maximal inhibitory concentration (IC50) fell in the range of 0.5 to 5 µM.
`COc1ccn2c(C(=O)Nc3cc(-c4noc(Cc5ccccc5)n4)ccc3C)cnc2c1` [Compound I-552, N-(5-(5-benzyl-1,2,4-oxadiazol-3-yl)-2-methylphenyl)-7-methoxyimidazo[1,2-a]pyridine-3-carboxamide]: the 50% inhibitory concentration (IC50) was no more than 0.05 µM.
The same measure for `COc1ccn2c(C(=O)Nc3cc(-c4noc(Cc5ccc(C)cc5)n4)ccc3C)cnc2c1` [Compound I-537, 7-methoxy-N-(2-methyl-5-(5-(4-methylbenzyl)-1,2,4-oxadiazol-3-yl)phenyl)imidazo[1,2-a]pyridine-3-carboxamide]: no more than 0.05 µM; for `CCOc1ccn2c(C(=O)Nc3cc(-c4noc(C[C@H](O)C(F)F)n4)ccc3C)cnc2c1` [Compound I-566, (S)—N-(5-(5-(3,3-difluoro-2-hydroxypropyl)-1,2,4-oxadiazol-3-yl)-2-methylphenyl)-7-ethoxyimidazo[1,2-a]pyridine-3-carboxamide]: no more than 0.05 µM.
Then `COc1ccn2c(C(=O)Nc3cc(-c4noc(C)n4)ccc3C)cnc2c1` [Compound I-533, 7-methoxy-N-(2-methyl-5-(5-methyl-1,2,4-oxadiazol-3-yl)phenyl)imidazo[1,2-a]pyridine-3-carboxamide], with no more than 0.05 µM.
The same measure for `Cc1ccc(-c2noc(N3CC(F)(F)C3)n2)cc1NC(=O)c1cnn2cc(Cl)ccc12` [Compound I-625]: no more than 0.05 µM; for `Cc1ccc(-c2noc(C[C@H](O)C(F)F)n2)cc1NC(=O)c1cnc2cc(COCc3nn[nH]n3)ccn12` [Compound I-597, (S)-7-(((2H-tetrazol-5-yl)methoxy)methyl)-N-(5-(5-(3,3-difluoro-2-hydroxypropyl)-1,2,4-oxadiazol-3-yl)-2-methylphenyl)imidazo[1,2-a]pyridine-3-carboxamide]: no more than 0.05 µM; for `Cc1nc(-c2ccc(C)c(NC(=O)c3cnc4cc(-c5ncsc5CO)ccn34)c2)no1` [Compound I-595, 7-(5-(hydroxymethyl)thiazol-4-yl)-N-(2-methyl-5-(5-methyl-1,2,4-oxadiazol-3-yl)phenyl)imidazo[1,2-a]pyridine-3-carboxamide]: no more than 0.05 µM.
As for `Cc1ccc(-c2ncon2)cc1NC(=O)c1cnc2cc(N3CCOCC3)ccn12` [Compound I-717], the IC50 is no more than 0.05 µM.
Then `Cc1ccn2c(C(=O)Nc3cc(-c4noc(-c5ccccc5)n4)ccc3C)cnc2c1` [Compound I-736], with no more than 0.05 µM; and `COc1ccn2c(C(=O)Nc3cc(-c4noc(-c5cccnc5)n4)ccc3C)cnc2c1` [Compound I-745], with no more than 0.05 µM.
As for `Cc1ccc(-c2noc(CCC(C)(C)O)n2)cc1NC(=O)c1cnn2ccccc12` [Compound I-563], the half-maximal inhibitory concentration (IC50) is 0.05 to 0.5 µM.
Then `Cc1ccc(-c2noc(CC(O)C(C)C)n2)cc1NC(=O)c1cnc2ccccn12` (centres unmarked) [Compound I-525, N-(5-(5-(2-hydroxy-3-methylbutyl)-1,2,4-oxadiazol-3-yl)-2-methylphenyl)imidazo[1,2-a]pyridine-3-carboxamide], with no more than 0.05 µM; and `CC[C@@H](O)Cc1nc(-c2ccc(C)c(NC(=O)c3cnc4cc(Cl)ccn34)c2)no1` [Compound I-616, 7-chloro-N-[5-[5-[(2R)-2-hydroxybutyl]-1,2,4-oxadiazol-3-yl]-2-methyl-phenyl]imidazo[1,2-a]pyridine-3-carboxamide], with no more than 0.05 µM; and `Cc1ccc(-c2ncon2)cc1NC(=O)c1cnc2cc(-c3cscn3)ccn12` [Compound I-694], with no more than 0.05 µM.
With `Cc1ccn2c(C(=O)Nc3cc(-c4noc(CCC(C)(O)C(F)(F)F)n4)ccc3C)cnc2c1` (single isomer, unassigned) [Compound I-515], the half-maximal inhibitory concentration (IC50) is no more than 0.05 µM.
The same measure for `Cc1ccc(-c2noc([C@H]3C[C@@H]3F)n2)cc1NC(=O)c1cnc2ccc(C(C)(C)O)cn12` [Compound I-457, N-(5-(5-((1R,2S)-2-fluorocyclopropyl)-1,2,4-oxadiazol-3-yl)-2-methylphenyl)-6-(2-hydroxypropan-2-yl)imidazo[1,2-a]pyridine-3-carboxamide]: no more than 0.05 µM; for `Cc1ccc(-c2noc(CC3COC3)n2)cc1NC(=O)c1cnc2cc(Cl)ccn12` [Compound I-753, 7-Chloro-N-[2-methyl-5-[5-(oxetan-3-ylmethyl)-1,2,4-oxadiazol-3-yl]phenyl]imidazo[1,2-a]pyridine-3-carboxamide]: no more than 0.05 µM.
Then `Cc1ccc(-c2noc(C[C@H](O)C(F)F)n2)cc1NC(=O)c1cnc2cc(-c3cscn3)ccn12` [Compound I-554, (S)—N-(5-(5-(3,3-difluoro-2-hydroxypropyl)-1,2,4-oxadiazol-3-yl)-2-methylphenyl)-7-(thiazol-4-yl)imidazo[1,2-a]pyridine-3-carboxamide], with no more than 0.05 µM.
Take `Cc1ccc(-c2noc([C@H]3CCN3)n2)cc1NC(=O)c1cnc2cc(-c3ccn(C)n3)ccn12` [Compound I-624, N-[5-[5-[(2R)-azetidin-2-yl]-1,2,4-oxadiazol-3-yl]-2-methyl-phenyl]-7-(1-methylpyrazol-3-yl)imidazo[1,2-a]pyridine-3-carboxamide]: the IC50 was no more than 0.05 µM.
The same measure for `COCC(O)Cc1nc(-c2ccc(C)c(NC(=O)c3cnc4ccccn34)c2)no1` (centres unmarked) [Compound I-528]: 0.05 to 0.5 µM; for `Cc1ccc(-c2noc([C@H]3C[C@@H]3F)n2)cc1NC(=O)c1cnc2ccc(-c3cscn3)cn12` [Compound I-541, N-(5-(5-((1R,2S)-2-fluorocyclopropyl)-1,2,4-oxadiazol-3-yl)-2-methylphenyl)-6-(thiazol-4-yl)imidazo[1,2-a]pyridine-3-carboxamide]: no more than 0.05 µM.
Then `CCc1nc(-c2ccc(C)c(NC(=O)c3cnn4cc(-c5ccn(C)n5)ccc34)c2)no1` [Compound I-722], with no more than 0.05 µM; and `Cc1ccc(-c2noc([C@H]3C[C@@H]3F)n2)cc1NC(=O)c1cnc2cc3c(cn12)C(C)OC3` (single isomer, unassigned) [Compound I-482, (4S*)—N-[5-[5-[(1R,2S)-2-fluorocyclopropyl]-1,2,4-oxadiazol-3-yl]-2-methyl-phenyl]-4-methyl-5-oxa-1,10-diazatricyclo[7.3.0.0^3,7]dodeca-2,7,9,11-tetraene-12-carboxamide], with no more than 0.05 µM.
For the compound `Cc1nc(-c2ccc(C)c(NC(=O)c3cnn4cc(C(F)F)ccc34)c2)no1` [Compound I-569], the half-inhibitory concentration (IC50) lay in the range of 0.05 to 0.5 µM.
With `Cc1ccc(-c2noc([C@H]3C[C@@H]3F)n2)cc1NC(=O)c1cnc2cc(CCOCC(C)(C)O)ccn12` [Compound I-467, N-(5-(5-((1R,2S)-2-fluorocyclopropyl)-1,2,4-oxadiazol-3-yl)-2-methylphenyl)-7-(2-(2-hydroxy-2-methylpropoxy)ethyl)imidazo[1,2-a]pyridine-3-carboxamide], the 50% inhibitory concentration (IC50) is no more than 0.05 µM.
